ChEMBL document CHEMBL1201862, “PubChem BioAssay data set” (2004)
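All cell lines were grown in 96-well plates and treated with compound for 48 hours. GI50 is the concentration that inhibits growth by half.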 Active and inactive are the calls of the source. No stated cut-off is given here; in the data, active = GI50 up to about 1.1 µM and inactive = higher.

Assays:
Assay in all cases: DTP human tumour cell line panel, 48 h
[1] = test system: UACC-62
[2] = test system: HL-60
[3] = test system: IGROV-1
[4] = test system: SK-MEL-28
[5] = test system: UACC-257
[6] = test system: NCI/ADR-RES
[7] = test system: LOX IMVI
[8] = test system: OVCAR-3
[9] = test system: MCF7
[10] = test system: SF-295
[11] = test system: SN12C
[12] = test system: HT-29
[13] = test system: UO-31
[14] = test system: U-251
[15] = test system: SK-MEL-2
[16] = test system: SW-620
[17] = test system: OVCAR-8
[18] = test system: NCI-H522
[19] = test system: A498

Measured: GI50

O=C(Nc1ccccc1)OCCN=C1c2ccccc2CCc2ccccc21
inactive: [1] 13.1 µM | [2] 13.8 µM | [3] 19.1 µM | [4] 15.4 µM | [5] 23.1 µM | [6] 19.7 µM | [7] 20 µM | [8] 13.6 µM | [9] 24 µM | [10] 15.5 µM | [11] 17.3 µM | [12] 18.5 µM | [13] 17.3 µM | [14] 17.3 µM | [15] 15 µM | [16] 35 µM | [17] 31.5 µM

COC(=O)C(=O)C(C(=O)C(=O)Nc1ccc(C)cc1C)c1nc2ccc(Cl)cc2nc1O (configuration not stated)
inactive: [1] > 100 µM | [2] 78 µM | [3] > 100 µM | [4] > 100 µM | [5] > 100 µM | [6] > 100 µM | [7] > 100 µM | [18] > 100 µM | [8] > 100 µM | [9] > 100 µM | [10] > 100 µM | [11] > 100 µM | [12] > 100 µM | [13] 47.6 µM | [14] > 100 µM | [15] > 100 µM | [16] > 100 µM | [17] > 100 µM

O=C(O)c1ccc(Nc2nc3cc(C(F)(F)F)ccc3nc2-c2ccccc2)cc1
inactive: [1] 10.4 µM | [2] 27.7 µM | [3] 13.4 µM | [4] 28.6 µM | [5] 35.3 µM | [6] 22.5 µM | [7] 15.2 µM | [18] 16.3 µM | [8] 15.2 µM | [9] > 10 µM | [10] 13.4 µM | [11] 26 µM | [12] 14.1 µM | [13] 17.1 µM | [14] 14.9 µM | [16] 17.2 µM | [17] 27.9 µM

c1ccc(/N=C(\N2CCOCC2)N(CCN2CCOCC2)c2ccccc2)cc1
inactive: [1] > 100 µM | [2] > 10 µM | [3] > 100 µM | [4] > 100 µM | [5] > 100 µM | [6] > 10 µM | [7] > 100 µM | [18] > 100 µM | [8] > 100 µM | [9] > 100 µM | [10] > 100 µM | [11] > 100 µM | [12] > 100 µM | [13] 45.2 µM | [14] > 100 µM | [15] > 100 µM | [16] > 100 µM | [17] > 100 µM

Cn1nc(Cc2ccc(Cl)cc2)n(N)c1=O
inactive: [1] 39.2 µM | [3] > 100 µM | [19] > 100 µM | [4] > 100 µM | [5] > 100 µM | [6] > 100 µM | [9] > 100 µM | [10] > 100 µM | [11] > 100 µM | [12] > 100 µM | [13] > 100 µM | [14] > 100 µM | [16] > 100 µM | [17] > 100 µM

CCOC(=O)N1C=CC(=C2C(=C3C=CN(C(=O)OCC)C=C3)C(=C3C=CN(C(=O)OCC)C=C3)C2=C2C=CN(C(=O)OCC)C=C2)C=C1
inactive: [1] 16.9 µM | [2] 33 µM | [3] 16.1 µM | [4] 27.5 µM | [5] 34.1 µM | [6] 22.4 µM | [7] 12.2 µM | [18] 19.1 µM | [8] 22.4 µM | [9] 35.6 µM | [10] 21.8 µM | [11] 20.2 µM | [12] 22.2 µM | [13] 12.9 µM | [14] 13.7 µM | [15] 26.8 µM | [16] 17 µM | [17] 27.1 µM
